Measurements as given in US12617790B2, “Mitragynine analogs and uses thereof” (Memorial Sloan-Kettering Cancer Center, priority 2015, dated 2026).

Assays:
CD1 mice [1] = assay: Reversal of tail flick antinociception by selective opioid antagonists, CD1 mice; type: in vivo, mouse; settings: VM1501 1.0 mg/kg sc, VM1502 1.5 mg/kg sc
KOR-1 [2] = target: T1, KOR-1 (Mus musculus, UniProt P33534); assay: [35S]GTPγS functional assay, KOR-1 transfected cell membranes; type: biochemical
T1 construct: expressed in transfected cells; host or cells: CHO

MOR-1 [3] = target: T2, MOR-1 (Mus musculus, UniProt P42866); assay: [35S]GTPγS functional assay, MOR-1 transfected cell membranes; type: biochemical
T2 construct: expressed in transfected cells; host or cells: CHO

mice [4] = assay: Gastrointestinal motility assay (charcoal meal transit); settings: FIG. 12C: VM1502 1.5 and 4 mg/kg, 30 min
mice [5] = assay: Physical dependence, naloxone-precipitated jumping; settings: VM1502 2x daily 2x ED50, challenge on days 5, 22, 29; 15 min count
CD1 mice [6] = assay: Radiant heat tail flick analgesia, icv, CD1 mice; type: in vivo, mouse; settings: ED50, cumulative dose-response, tail flick 15 min after icv dose
DOR-1 [7] = target: T3, DOR-1 (Mus musculus, UniProt P32300); assay: Competition binding against 125I-IBNtxA in DOR-1/CHO membranes
T3 construct: expressed in transfected cells; host or cells: CHO

CD1 mice [8] = assay: Respiratory depression assessment (MouseOx pulse oximeter breath rate)
rats = assay: Tail flick analgesia, sc, rats; type: in vivo; settings: Rattus norvegicus, 0.25 h, rats (n=3), 15 mins, cumulative dosing
KOR-1 [9] = target: T1, KOR-1; assay: Competition binding against 125I-IBNtxA in KOR-1/CHO membranes
CD1 male mice [10] = assay: Tail flick antinociception, oral by gavage, CD1 male mice; type: in vivo; settings: Mus musculus, orally by gavage
MOR-1 [11] = target: T2, MOR-1; assay: Competition binding against 125I-IBNtxA in MOR-1/CHO membranes
CD1 mice [12] = assay: Radiant heat tail flick analgesia, sc, CD1 mice; type: in vivo; settings: Mus musculus, 0.25 h, ED50, cumulative dose-response, tail flick 15 min after sc dose
mice [13] = assay: Antisense oligodeoxynucleotide downregulation, tail flick antinociception; type: in vivo, mouse; settings: antisense icv days 1, 3, 5, test day 6; VM1501 1.0 mg/kg sc, VM1502 1.5 mg/kg sc
CD1 male mice [14] = assay: Tolerance study, chronic twice daily dosing, tail flick; settings: for ED50: Mus musculus, sc
DOR-1 [15] = target: T3, DOR-1; assay: [35S]GTPγS functional assay, DOR-1 transfected cell membranes; type: biochemical
mice [16] = assay: Conditioned place preference / aversion; settings: VM1502 1.3 and 3.2 mg/kg/d, 2 days conditioning

CC[C@@H]1CN2CC[C@]3(Nc4cccc(OC)c4C3=O)C2C[C@@H]1/C(=C\OC)C(=O)OC (stereo partly drawn) [VM1502, (E)-methyl 2-((1'S,6'S,7'S)-6′-ethyl-4-methoxy-3-oxo-3′,5′,6′,7′,8′,8a′-hexahydro-2′H-spiro[indoline-2,1′-indolizine]-7′-yl)-3-methoxyacrylate]
antinociception after NTI (0.5 mg/kg sc) and norBNI (10 mg/kg sc) (CD1 mice [1]): insensitive to NTI and norBNI | antinociception after β-FNA (40 mg/kg sc) (CD1 mice [1]): antagonized by β-FNA | IC50 (KOR-1 [2]): 31 nM | EC50 (MOR-1 [3]): 1.7 nM | gastrointestinal transit (mice [4]): lowered transit significantly compared with saline (P<0.05) but less than morphine at both doses | physical dependence: number of jumps after naloxone (1 mg/kg) (mice [5]): not significantly greater than that of mice treated with saline | Analgesia icv (CD1 mice [6]): 0.38 µg | Ki (DOR-1 [7]): 3 nM | respiratory rate (CD1 mice [8]; FIG. 12D, 2x antinociceptive ED50: VM1502 1.2 mg/kg sc, morphine 5 mg/kg): did not depress respiratory rate | respiratory rate (CD1 mice [8]; FIG. 12D, 5x antinociceptive ED50: VM1502 3 mg/kg sc, morphine 10 mg/kg): showed signs of respiratory depression albeit significantly less than the equianalgesic dose of morphine | respiratory rate (CD1 mice [8]; FIG. 14, 5x antinociceptive ED50: VM1502 3.75 mg/kg sc, VM1512 5.0 mg/kg sc, morphine 10 mg/kg): showed signs of respiratory depression albeit significantly less than the equianalgesic dose of morphine | ED50 (rats): 1.4 mg/kg | Ki (KOR-1 [9]): 24 nM | ED50 (CD1 male mice [10]): 7.5 mg/kg | Ki (MOR-1 [11]): 0.8 nM | ED50 (CD1 mice [12]): 0.76 mg/kg | analgesic response after antisense downregulation (mice [13]): only affected in MOR-1-downregulated mice | ED50 (CD1 male mice [14]; 0 h, read-out: analgesic ED50, naïve (day 0)): 0.63 mg/kg | ED50 (CD1 male mice [14]; 120 h, read-out: analgesic ED50, day 5): 1.1 mg/kg | ED50 (CD1 male mice [14]; 288 h, read-out: analgesic ED50, day 12): 1.8 mg/kg | ED50 (CD1 male mice [14]; 528 h, read-out: analgesic ED50, day 22): 2 mg/kg | ED50 (CD1 male mice [14]; 696 h, read-out: analgesic ED50, day 29): 4.5 mg/kg | onset of analgesic tolerance (CD1 male mice [14]; dosed 2x daily with 2x antinociceptive ED50): very slow onset of tolerance compared with morphine | IC50 (DOR-1 [15]): 61 nM | conditioned place preference or aversion (mice [16]): did not produce conditioned place preference or aversion
